The values that follow are results of earlier work, collected in US7276608B2, “Tetrahydroquinoline derivatives as cannabinoid receptor modulators” (Bristol-Myers Squibb Company, priority 2003, dated 2007).

The conditions of data set [1]: chronic administration for two weeks.
For data set [2] the following is noted: 16 week trial period, Phase IIb.

On to `Cc1c(C(=O)NN2CCCCC2)nn(-c2ccc(Cl)cc2Cl)c1-c1ccc(I)cc1` [AM-251], for which the body weight result in data set [1] is “substantial body weight reduction”. On to `Cc1c(C(=O)NN2CCCCC2)nn(-c2ccc(Cl)cc2Cl)c1-c1ccc(Cl)cc1` [SR-141716], for which the “body weight in human subjects” value in data set [2] is “dose-dependently reduced body weight”.
